The source of these data is ChEMBL document CHEMBL5346951, “Novel H2S-Releasing Bifunctional Antihistamine Molecules with Improved Antipruritic and Reduced Sedative Actions” (J Med Chem, 2023).

The IC50 is the midpoint of a concentration-inhibition curve.

One data set relates to Kidney. Put plainly: Release of H2S in mouse kidney homogenate at 10 to 300 uM measured for 10 mins by methylene blue formation assay. The class given is ADME, tissue-based. Conditions: tissue homogenate, dose 10-300 µM.
A short description of data set [1]: (§1) Antihistamine effect in HUVEC cells assessed as inhibition of histamine-induced tissue factor expression pretreated 30 mins before addition of his measured after 2 hrs after addition of TRIzol by spectrophotometry. The data set is classed as functional, cell-based. Conditions: Homo sapiens, HUVE.
In the next data set the test system is HUVE. The data set is described as §1. The class given is functional, cell-based. Conditions: Homo sapiens.
For data set [2], the system named is Mus musculus. Put plainly: Antihistamine effect in mouse assessed as Inhibition of histamine-induced increase vascular leakage in skin tissue at 15 mg/kg, ip pretreated 30 mins before Evans blue injection followed by injected with histamine mouse euthanized and skin excised by Miles assay. The data set is classed as functional, organism-based.
Data set [3] concerns Mus musculus. Put plainly: Antipruritic effect in mouse assessed as reduction in histamine-induced itching duration at 60 to 120 mg/kg ip pretreated 30 mins before histamine and recorded for 10 mins. Conditions: dose 60-120 mg/kg, 0.5 h. The data set is classed as functional.
A short description of data set [4]: Toxicity in histamine-induced mouse itching mouse model assessed as reduction in locomotion at 60 to 120 mg/kg ip. The data set is classed as organism-based. Conditions: in vivo, dose 60-120 mg/kg.
The subject of data set [5] is Mus musculus. Put plainly: Antipruritic effect in mouse assessed as reduction in histamine-induced itching duration at 15 mg/kg ip pretreated 30 mins before histamine and recorded for 10 mins. The data set is classed as functional, organism-based.
Data set [6] in a line: Toxicity in histamine-induced mouse itching mouse model assessed as reduction in locomotion at 15 mg/kg ip. Particulars: in vivo. The data set is classed as organism-based.
Data set [7] relates to Mus musculus. Put plainly: Antipruritic effect in mouse assessed as reduction in PAR-2-induced itching duration at 15 mg/kg ip pretreated 30 mins before histamine and recorded for 10 mins. The class given is functional, organism-based.
Data set [8] in a line: Toxicity in mouse assessed as sedative effect by measuring reduction in locomotion at 70 mg/kg ip. The class given is organism-based. Conditions: in vivo.
Data set [9] in a line: Plasma concentration in mouse at 1 mg/kg, ip measured after 30 mins by LC-MS/MS analysis. The data set is classed as ADME, organism-based.
A short description of data set [10]: Drug metabolism in mouse assessed as fold increase in plasma HDZ at 50 mg/kg, ip by LC-MS/MS analysis. The class given is ADME, organism-based. Conditions: in vivo.
Another data set relates to HepG2. Put plainly: Release of H2S in human HepG2 cells measured for 24 hrs by lead acetate method. The data set is classed as ADME, cell-based. Conditions: hepg2, 24 h, dose 0.5-3 mM.
The test system of data set [11] is Mus musculus. Put plainly: Antipruritic effect in mouse assessed as reduction in histamine-induced itching duration at 3.5 mg/kg ip pretreated 30 mins before histamine and recorded for 10 mins relative to HDZ. The data set is classed as functional, organism-based.
For data set [12], the system named is Mus musculus. Put plainly: Antipruritic effect in mouse assessed as reduction in histamine-induced itching duration at 20 mg/kg ip pretreated 30 mins before histamine and recorded for 10 mins. The data set is classed as functional, organism-based.
Data set [13] has as its system Mus musculus. Put plainly: Antihistamine effect in mouse assessed as Inhibition of histamine-induced increase vascular leakage in skin tissue at 50 mg/kg, ip pretreated 30 mins before Evans blue injection followed by injected with histamine mouse euthanized and skin excised by Miles assay. The data set is classed as functional, organism-based.
In data set [14] the test system is Mus musculus. Put plainly: Antipruritic effect in mouse assessed as reduction in histamine-induced itching duration at 50 mg/kg ip pretreated 30 mins before histamine and recorded for 10 mins relative to CET. The class given is functional, organism-based.
The test system of data set [15] is Mus musculus. Put plainly: Antipruritic effect in mouse assessed as reduction in PAR-2-induced itching duration at 50 mg/kg ip pretreated 30 mins before histamine and recorded for 10 mins. The class given is functional, organism-based.
Data set [16] in a line: Drug metabolism in mouse assessed as fold increase in plasma CET at 50 mg/kg, ip by LC-MS/MS analysis. The class given is ADME, organism-based. Conditions: in vivo.
Data set [17] relates to Mus musculus. Put plainly: Antihistamine effect in mouse assessed as Inhibition of histamine-induced increase vascular leakage in skin tissue at 10 mg/kg, ip pretreated 30 mins before Evans blue injection followed by injected with histamine mouse euthanized and skin excised by Miles assay. The class given is functional, organism-based.
Data set [18] deals with Mus musculus. Put plainly: Antipruritic effect in mouse assessed as reduction in histamine-induced itching duration at 10 mg/kg ip pretreated 30 mins before histamine and recorded for 10 mins. The class given is functional, organism-based.
For data set [19], the system named is Mus musculus. Put plainly: Antipruritic effect in mouse assessed as reduction in histamine-induced itching duration at 30 mg/kg ip pretreated 30 mins before histamine and recorded for 10 mins. The class given is functional, organism-based.
For data set [20], the system named is Mus musculus. Put plainly: Antipruritic effect in mouse assessed as reduction in PAR-2-induced itching duration at 10 mg/kg ip pretreated 30 mins before histamine and recorded for 10 mins. The data set is classed as functional, organism-based.
Data set [21] in a line: Plasma concentration in mouse at 10 mg/kg, ip measured after 30 mins by LC-MS/MS analysis.
Data set [22] deals with Mus musculus. Put plainly: Antihistamine effect in mouse assessed as Inhibition of histamine-induced increase vascular leakage in skin tissue at 1 mg/kg, ip pretreated 30 mins before Evans blue injection followed by injected with histamine mouse euthanized and skin excised by Miles assay. The data set is classed as functional, organism-based.
The test system of data set [23] is Mus musculus. Put plainly: Antipruritic effect in mouse assessed as reduction in histamine-induced itching duration at 1 mg/kg ip pretreated 30 mins before histamine and recorded for 10 mins. The data set is classed as functional, organism-based.
Data set [24] concerns Mus musculus. Put plainly: Antipruritic effect in mouse assessed as reduction in histamine-induced itching duration at 5 mg/kg ip pretreated 30 mins before histamine and recorded for 10 mins. The data set is classed as functional, organism-based.
In data set [25] the test system is Mus musculus. Put plainly: Antipruritic effect in mouse assessed as reduction in PAR-2-induced itching duration at 1 mg/kg ip pretreated 30 mins before histamine and recorded for 10 mins. The data set is classed as functional, organism-based.
Data set [26] in a line: Toxicity in mouse assessed as sedative effect by measuring reduction in locomotion at 50 mg/kg ip. The class given is organism-based. Conditions: in vivo.

The source made the active and inactive calls. The rule behind the calls is not given here.

For `CCOCCn1c(C2CCN(CCc3ccc(C(C)(C)C(=O)Oc4ccc(C(N)=S)cc4)cc3)CC2)nc2ccccc21`, the Drug metabolism entry with Kidney is given as “Dose-Dependent Effect”.
For `NC(=S)c1ccc(OC(=O)CCC(=O)OCCOCCN2CCN(C(c3ccccc3)c3ccc(Cl)cc3)CC2)cc1` (stereo unspecified), in the data set with Kidney, the Drug metabolism entry is given as “Dose-Dependent Effect”. Further, in data set [1], the IC50 was 599 nM. Moreover, the inhibition entry with HUVE is “Dose-Dependent Effect”. Besides, the inhibition result in the data set with Mus musculus [2], in the data set with Mus musculus [5] and in the data set with Mus musculus [7] was “Active” in each case. Also, in the data set with Mus musculus [3], the “inhibition (INH)” value was found to be 100%. Besides, the Activity result in [4] is “Toxic”; in data set [6], “Non-Toxic”; in data set [8], “Non-Toxic”. In addition, the concentration at 0.5 h in data set [9] was 36.1 ng/mL. Besides, the “fold change (FC)” value in data set [10] is 15.
As to `C[C@H]1CN(C2CCC(C#N)(c3ccc(F)cc3)CC2)CC[C@@]1(C(=O)Oc1ccc(-c2cc(=S)ss2)cc1)c1ccccc1` (stereo partly specified), the Drug metabolism result in the data set on Kidney and in the data set on HepG2 was “Dose-Dependent Effect” in each case.
As for `C[C@H]1CN(C2CCC(C#N)(c3ccc(F)cc3)CC2)CC[C@@]1(C(=O)Oc1ccc(C(N)=S)cc1)c1ccccc1` (stereo partly specified), in the data set on Kidney, the Drug metabolism entry is on record as “Dose-Dependent Effect”.
For the compound `CCOCCn1c(C2CCN(CCc3ccc(C(C)(C)C(=O)Oc4ccc(-c5cc(=S)ss5)cc4)cc3)CC2)nc2ccccc21`, the Drug metabolism entry in the data set with Kidney and with HepG2 was “Dose-Dependent Effect” throughout.
Turning to `NC(=S)c1ccccc1`, the inhibition result with Mus musculus [11] was “Active”.
Take `Oc1ccc(-c2cc(=S)ss2)cc1`: the inhibition result with Mus musculus [12] was “Active”.
`O=C(COCCN1CCN(C(c2ccccc2)c2ccc(Cl)cc2)CC1)OCCCCCCOc1ccc(-c2cc(=S)ss2)cc1` (racemic): the Drug metabolism entry with Kidney was “Dose-Dependent Effect”.
In the case of `O=C(CCC(=O)Oc1ccc(-c2cc(=S)ss2)cc1)OCCOCCN1CCN(C(c2ccccc2)c2ccc(Cl)cc2)CC1` (racemic), the Drug metabolism result in the data set on Kidney and in the data set with HepG2 was “Dose-Dependent Effect” each time. For the same compound, the half-inhibitory concentration (IC50) in data set [1] is 5.5 nM. Besides, in the data set on HUVE, the inhibition result was “Dose-Dependent Effect”.
For `NC(=S)c1ccc(OCCCCCCOC(=O)COCCN2CCN(C(c3ccccc3)c3ccc(Cl)cc3)CC2)cc1` (racemic), the Drug metabolism entry with Kidney was “Dose-Dependent Effect”. In addition, the IC50 in [1] was 7.9 nM. Also, in the data set with HUVE, the inhibition result is “Dose-Dependent Effect”.
Regarding `O=C(COCCN1CCN(C(c2ccccc2)c2ccc(Cl)cc2)CC1)OCCOc1ccc(-c2cc(=S)ss2)cc1` (racemic), the Drug metabolism result with Kidney and with HepG2 was “Dose-Dependent Effect” throughout. For the same compound, the concentration for half-maximal inhibition (IC50) in data set [1] is 812 nM. Moreover, the inhibition result in the data set on HUVE is “Dose-Dependent Effect”. The inhibition result in the data set with Mus musculus [13], in the data set with Mus musculus [14] and in the data set on Mus musculus [15] was “Active” in each case. In addition, the “fold change (FC)” value in data set [16] came to 3.
In the case of `O=C(O)COCCN1CCN(C(c2ccccc2)c2ccc(Cl)cc2)CC1` (stereo unspecified) [CETIRIZINE], the 50% inhibitory concentration (IC50) in data set [1] is 169 nM. The inhibition entry with HUVE was “Dose-Dependent Effect”. Moreover, the inhibition entry in the data set with Mus musculus [17] and in the data set on Mus musculus [20] was “Active” in each case. Also, the result with Mus musculus [18] and with Mus musculus [19] was Active. Further, in [8], the Activity result is “Toxic”. The concentration at 0.5 h in [21] amounted to 8460 ng/mL.
In the case of `OCCOCCN1CCN(C(c2ccccc2)c2ccc(Cl)cc2)CC1` (stereo unspecified) [HYDROXYZINE], the IC50 in [1] turned out to be 4.87 nM. Besides, the inhibition result in the data set on HUVE was “Dose-Dependent Effect”. Besides, the inhibition result in the data set on Mus musculus [22] and in the data set on Mus musculus [25] was “Active” each time. The outcome in the data set with Mus musculus [23] and in the data set on Mus musculus [24] was Active. In data set [26], the Activity entry is “Toxic”.
